Results published in US7648993B2, “Methods of treating disorders with Group I mGluR antagonists” (Brown University, priority 2001, dated 2010).
“Also recorded” adds a separate entry of the source.

Experiments:
[1] = tested on: hippocampal area CA1 slices; assay: Field potential (FP) recordings in area CA1 of rat hippocampal slices (DHPG-LTD); type: cell-based, Long Evans rats
Procedure: All animals were used in accordance with procedures approved by the Brown University Institutional Animal Care and Use Committee. Hippocampal slices were prepared from postnatal day 21-30 (P21-30) Long Evans rats (Charles River, Cambridge, Mass.) and mGluR5 knockout mice (Lu et al. 1997) as described previously (Huber et al. 2000). For most experiments, CA3 was removed immediately after sectioning. Slices recovered for 1-2 h at room temperature (rats) or at 30° C. (mice) in artificial cerebrospinal fluid (ACSF) containing (in mM) 124 NaCl, 5 KCl, 1.25 NaH2PO4, 26 NaHCO3, 1 MgCl2, 2 CaCl2, and 10 dextrose, saturated with 95% O2-5% CO2. For recording, slices were placed in a submersion recording chamber and perfused with 30° C. ACSF at a rate of 2 ml/min.
Synaptically evoked field potentials (FPs) were recorded from area CA1 as described previously. Sharp microelectrode and whole cell voltage-clamp recordings were made using Axoclamp 2B and Axopatch 1D amplifiers (Axon Instruments), respectively. Sharp electrodes (80-120 M Ω) were filled with 3 M K-acetate and 10 mM KCl; patch pipettes (3-7 M Ω) were filled with (in mM) 134 K-gluconate, 6 KCl, 4 NaCl, 10 HEPES, 0.2 EGTA, 4 MgATP, 0.3 TrisGTP, and 14 phosphocreatine. The pH of the internal solution was adjusted to 7.25 with KOH, and the osmolarity was adjusted to 300 mOsm with H2O or sucrose. Only experiments in which there was less than a 15% change in series resistance were included in the analysis. Waveforms were filtered at 2 kHz and acquired and digitized at 10 kHz on a PC using Experimenter's Workbench (DataWave Systems, Boulder, Colo.).
Baseline responses were collected every 10-30 s using a stimulation intensity (10-30 μA; 0.2 ms) yielding 50-60% of the maximal response. Experiments in which there was a>5% drift in the response magnitude during the 20-min baseline period before DHPG or LFS were excluded from further analysis. All experiments with mGluR5 KO mice used wildtype littermates as controls and were performed blind to the genotype, later determined by Therion (Troy, N.Y.). LFS consisted of 900 pulses at 1 Hz. PP-LFS consisted of 900 pairs of stimuli (50-ms interstimulus interval) delivered at 1 Hz. In saturation experiments, stimulus duration was increased from 0.2 to 0.4 ms during PP-LFS.
The group data were analyzed as follows: 1) the initial slopes of the FPs and excitatory postsynaptic potentials (EPSPs), or the amplitude of the excitatory postsynaptic currents (EPSCs), for each experiment were expressed as percentages of the preconditioning or DHPG baseline average, 2) the time scale in each experiment was converted to time from the onset of conditioning or DHPG, and 3) the time-matched, normalized data were averaged across experiments and expressed in the text and figures as the means ±SE. Significant differences between groups were determined using an independent t-test or ANOVA performed on a 5-min average taken 1 h after LFS or DHPG application.
R,S-DHPG and D-2-amino-5-phosphonopentanoic acid (D-AP5) was purchased from Tocris (St. Louis, Mo.); all other chemicals were from Sigma Chemical (St Louis, Mo.). DHPG was prepared as a 100 times stock in H2O, aliquoted and stored at −20° C. Fresh stocks were made once a week. A 10 times stock of AP5 was prepared in ACSF and stored at 4° C. These stocks were diluted in ACSF to achieve their final concentrations. Picrotoxin was dissolved directly into ACSF immediately before use.

[2] = tested on: cultured hippocampal neurons; assay: Acid strip immunocytochemistry for internalized GluR1 (AMPARs); type: cell-based, rat; conditions: for effect on DHPG/mGluR-stimulated internalization of GluR1 (in words): APV 50 μM, cycloheximide 60 μM applied 15 min before DHPG; for effect on basal levels of internalized puncta (in words): without DHPG
[3] = tested on: cultured hippocampal neurons; assay: Immunocytochemical localization of surface synaptic receptors (GluR2, GluR1, NR1, GABAAβ1); type: cell-based, rat; conditions: for GluR1-positive synapses: cycloheximide 60 μM applied 15 min before DHPG where named
Text: We next determined if the DHPG-induced increase in internalized AMPARs is accompanied by a net decrease in surface-expressed receptor clusters at synapses. At various intervals after DHPG washout, cells were fixed and surface GluR2 or GluR1 was labeled with N-terminal antibodies without permeabilization. The cultures were then permeabilized, and synapses were labeled using an antibody against the presynaptic marker synapsin I or synaptophysin coupled to the appropriate secondary antibody. Under control conditions, most synapses were immunoreactive for AMPAR clusters (GluR2, 80.6±9.0%; n=10 cells, 200 synapses, FIGS. 5A-D; GluR1, 72.5±4.7%; n=15 cells, 225 synapses; FIGS. 5E and F).
Following experimental treatment, low-density cultures were fixed in 4% paraformaldehyde with 4% sucrose for 5 min. Cultures were rinsed in PBS and then blocked in PBS with 20% fetal bovine serum for 1 h. Cultures were stained with N-terminal receptor antibodies overnight at 4° C. (GluR2, 1:100, Chemicon, Ternecula, California; GluR1, 1:100, gift of R. Huganir; NR1, 1:500, Chemicon MAB363; GABAAβ1, 1:100 Santa Cruz Biologicals, Santa Cruz, Calif.). Cultures were then rinsed in blocking buffer containing 0.1% Triton-X for 20 min and exposed to antibodies directed against presynaptic proteins (synapsin 1, 1:1000, Chemicon; synaptophysin, 1:100, Boehringer Manheim, Irvine, Calif.) for 1 h at room temperature. Cultures were then rinsed and exposed to the appropriate fluorescent secondary antibodies (Jackson Immunoresearch, West Grove, Pa.).
Microscopy was performed with a Nikon E800 microscope using a 60×1.4 NA objective (Melville, N.Y.). Fluorescence images were collected with a Sensys cooled CCD camera and analyzed using IP-Labs software. Additional images were collected with a Olympus Flowview confocal microscope with a 60×1.2 NA objective. All analyses were performed blind to the stimulation history of the culture. Microscopic fields had 1-3 neurons displaying smooth soma and generally healthy morphology with multiple distinct processes. Immunofluorescence was analyzed along the proximal 50 μm of 3 or more dendrites per neuron. Immunoreactive puncta were defined as discrete points along the dendrite with fluorescence intensity twice the background staining of the neuron. Five cells were analyzed per culture and 3-6 cultures were analyzed per condition. Separate controls were performed with each experiment and a Student's t-test was used to determine statistical significance. Data are expressed as puncta per 10 μm of dendrite unless stated otherwise.

[4] = tested on: high-density cultured hippocampal neurons; assay: Biotinylation and quantitative western blot of surface expressed receptors; type: cell-based, rat; conditions: DHPG 50 μM, 5 min; 60 minutes later; cycloheximide 60 μM with DHPG where named
Procedure: To confirm the effect of mGluR activation on surface AMPARs using an alternative approach, we treated high-density cultures with DHPG (50 μM, 5 min) or control medium and surface receptors were labeled with biotin 60 minutes later. Biotinylated receptors were precipitated and the ratio of surface to total GluR1 was determined by quantitative western blotting. This biochemical analysis confirmed that surface AMPARs are reduced by DHPG treatment to only 56.8±4.0% of the value in control cultures (n=4 in each treatment group; p<0.01; FIG. 6).
Biotinylation experiments were performed as previously described^35. Briefly, 2-week-old high-density cultured hippocampal neurons were treated with either control medium or 50 μM DHPG for 5 min, and incubated for 1 h at 37° C. to allow endocytosis to occur. The sister cultures were placed on ice to stop endocytosis and washed two times with ice-cold artificial cerebrospinal fluid (ACSF) containing 124 mM NaCl, 5 mM KCl, 1.25 mM NaH2PO4, 26 mM NaHCO3, 0.8 mM MgCl2, 1.8 mM CaCl2, 10 mM dextrose, and saturated with 95% O2, 5% CO2. Cultures were then incubated with ACSF containing 1 mg/ml Sulfo-NHS-LC-Biotin (Pierce Chemical Company, Rockford, Ill.) for 30 min on ice. Cultures were rinsed in TBS to quench the biotin reaction. […] Quantitative western blots were performed on both total and biotinylated (surface) proteins using anti-GluR1 C-terminal (1:1000, Upstate Biotechnology, Lake Placid, N.Y.) and anti-NR1 N-terminal antibodies (1:1000, Chemicon). […] Digital images, produced by densitometric scans of autoradiographs on a ScanJet IIcx (Hewlett Packard, Palo Alto, Calif.) with DeskScan II software (Hewlett Packard), were quantified using NIH Image 1.60 software. The surface/total ratio was calculated for each culture, and treatment groups were compared using a paired t-test. […] For display purposes, the data are expressed as the ratio of DHPG to control values.

Structure (SMILES): N[C@@H](Cn1oc(=O)[nH]c1=O)C(=O)O [quisqualic acid]
- LTD of FP, % of baseline ([1]; quisqualic acid 5 μM, 5 min): 81±2%
- LTD induced with quisqualic acid in the presence of AP5 ([1]; quisqualic acid 5 μM, with AP5): 79±2%

Structure (SMILES): N[C@](CC1c2ccccc2Oc2ccccc21)(C(=O)O)[C@@H]1C[C@H]1C(=O)O [LY344545]
- internalized GluR1 puncta, LY344545 experiment ([2]; DHPG 50 μM, 5 min, LY344545 100 μM): 0.32±0.08 puncta per 10 μm of dendrite
- effect on DHPG/mGluR-stimulated internalization of GluR1 (in words) ([2]; LY344545 100 μM): completely blocked

Structure (SMILES): C[C@@H]1C[C@@H]([C@H](O)CC2CC(=O)NC(=O)C2)C(=O)[C@@H](C)C1 [cycloheximide]
- GluR1-positive synapses ([3]; 15 min after DHPG): 37.8±3.8%
- GluR1-positive synapses ([3]; 60 min after DHPG): 55.7±5.1%
- NR1-positive synapses ([3]; 60 minutes after DHPG treatment, with cycloheximide where named): 42+5%
- effect on DHPG/mGluR-stimulated internalization of GluR1 (in words) ([2]; LY344545 100 μM): significantly inhibited; also recorded: decreases
- internalized GluR1 puncta, cycloheximide experiment ([2]; measured at 60 minutes, chx 60 μM applied 15 min before DHPG): 0.76±0.09 puncta per 10 μm of dendrite
- effect on basal levels of internalized puncta (in words) [2]: Neither cycloheximide nor anisomycin had any significant effect
- surface NR1 (surface/total), % of the value in control cultures [4]: 79.1±14.5%

Structure (SMILES): N[C@H](CCCP(=O)(O)O)C(=O)O [AP5, D-2-amino-5-phosphonopentanoic acid]
- effect on the magnitude of DHPG-LTD (in words) ([1]; AP5 50 μM): no effect
- magnitude of DHPG-LTD in the presence of AP5 ([1]; AP5 50 μM preincubation, DHPG 50 μM, 5 min): 83±3%
- effect on DHPG/mGluR-stimulated internalization of GluR1 (in words) ([2]; LY344545 100 μM): no effect

Structure (SMILES): COc1ccc(C[C@H]2NC[C@H](O)[C@H]2OC(C)=O)cc1 [anisomycin]
- effect on DHPG/mGluR-stimulated internalization of GluR1 (in words) ([2]; LY344545 100 μM): blocked
- effect on basal levels of internalized puncta (in words) [2]: Neither cycloheximide nor anisomycin had any significant effect
